# Measured values taken from patent EP2813566A1, “Method for incorporating a compound into live yeast cells” (priority 2013, dated 2014).
# Structures can show the parent of a compound that is named as a salt.
# Assays:
# Type in all cases: cell-based
# [1] = system: Escherichia coli (Migula1895) Castellani and Chalmers 1919AL, ATCC10536; test: Kirby-Bauer Disk Diffusion method, Escherichia coli reference strain; conditions: for inhibition zone: 25-41-52-41°C
# Description: The culture medium is Nutrient agar (Oxoid CM3) in g/litre Lab-Lemco beef extract 1; Yeast extract 2; Peptone 5; NaCl 5; Agar 15; pH7.4
# (§1) For experimental purposes, the antimicrobial activities of the antibiotic standard solution of known concentration, of the yeasts within their incorporation broth after the methods steps, of the supernatants collected by centrifugation and of the pellets of the centrifuged yeasts, after each washing cycle, were compared, using a Kirby-Bauer Disk Diffusion method.
# (§2) Sterile filter or blotter paper disks were laid down on the gelose, humidified with PBS 3 µl. 6 to 12µl of each above-mentioned fraction were then sucked into the blotting paper disk.
# [2] = system: Streptococcus pyogenes Rosenbach 1884AL, ATCC12344; test: Kirby-Bauer Disk Diffusion method, Streptococcus pyogenes reference strain; conditions: for inhibition zone diameter: Saccharomyces Lalvin
# Description: Streptococcus pyogenes Rosenbach 1884AL, ATCC12344 comes from the BCCM-LMG Bacteria collection, accession number 21599, laboratorium voor microbiologie, UGent, B-9000 Gent. The culture medium is Brain Heart Infusion Broth of typical composition (g/litre) (brain extract, heart extract and peptones 27.5; D+glucose 2.0; sodium chloride 5.0; di-sodium hydrogen phosphate 2.5; agar-agar (not present in the broth) 15.0. Brain Heart Infusion Agar was purchased from Oxoid CM 0375. The medium may be enriched with a sterilized horse serum from defibrinated horse blood for 20 % of global volume. Brain Heart Infusion SM 225 from Oxoid may also be employed for streptococcus culture broth.
# as §1
# (§3) The selected reference strains were Streptococcus pyogenes Rosenbach1884AL (BCCM-LMG 21599) or Lactobacillus paracasei subsp. paracasei Collins, Phillips and Zanoni 1989 VP (BCCM-LMG 9192).
# (§4) The streptococci or lactobacilli reference strains populations were counted in a Neubauer cell, and then diluted in PBS so as to obtain 2 million germs in one ml buffer: 0.5 ml of the diluted culture medium were then streaked on the agar plates. Another method for obtaining the suitable density of reference bacteria is the culture medium dilution in PBS so as to obtain with a filter photometer, an optical density of 0.04 at 620nm.
# as §2
# [3] = system: Lactobacillus paracasei subsp. paracasei; test: Kirby-Bauer Disk Diffusion method, Lactobacillus paracasei reference strain
# Description: Lactobacillus paracasei subsp. paracasei Collins, Phillips and Zanoni 1989 VP, type strain of Lactobacillus casei subsp. pseudoplantarum, came from the BCCM-LMG Bacteria collection, accession number 9192, ATCC 25598, depositor NCIMB. Lactobacillus kefiri Kandler and Kunath 1983VL, BCCM-LMG Bacteria collection, accession number 9480, ATCC 35411. A modified Man, Rogosa, Sharpe medium has been used for the Lactobacillus kefiri and for Lactobacillus paracasei culture, as a reference strain for antibiotic activity of the yeast strains: the composition (g/liter) peptone 10.0; meat extract 8.0; yeast extract 4.0; glucose 20.0; orthophosphate 2.0; magnesium sulphate heptahydrate 0.2; manganese sulphate tetrahydrate 0.05; ferrous sulphate 0.01; agar 10.0 The pH is adjusted to 6.2 with acetic acid.
# as §1, §3, §4, §2
# [4] = system: Streptococcus pyogenes or Lactobacillus paracasei; test: Kirby-Bauer Disk Diffusion method, reference strain not stated for the experiment; conditions: Saccharomyces bayanus Lalvin, red grape juice + Potato Plus Juice, clarithromycin 2mg/ml, pH 4.0
# Description: as §1, §3, §4, §2
smiles,measurement,setting,value
"NCC[C@H](O)C(=O)N[C@@H]1C[C@H](N)[C@@H](O[C@H]2O[C@H](CN)[C@@H](O)[C@H](O)[C@H]2O)[C@H](O)[C@H]1O[C@H]1O[C@H](CO)[C@@H](O)[C@H](N)[C@H]1O [Amikacine sulfate standard in TBS, Amikacine sulphate]",inhibition zone,"[1]; Kluyveromyces marxianus, red grape juice + potatoes juice with selenium, Amukin 1mg/ml, pH 4.0, violet photoinduction",26.5 mm
"CC[C@H]1OC(=O)[C@H](C)[C@@H](O[C@H]2C[C@@](C)(OC)[C@@H](O)[C@H](C)O2)[C@H](C)[C@@H](O[C@@H]2O[C@H](C)C[C@H](N(C)C)[C@H]2O)[C@](C)(OC)C[C@@H](C)C(=O)[C@H](C)[C@@H](O)[C@]1(C)O [Clarithromycin standard (2mg/ml), clarithromycin]",inhibition zone in diameter,"[2]; Kluyveromyces marxianus + Lactobacillus kefiri, red grape juice + sweet potatoes juice with selenium, clarithromycin, pH 4.0, 25-41-52-41°C, violet photoinduction",47 mm
same,inhibition zone diameter,"[2]; YPD broth pH 6.5, clarithromycin 2mg/ml, simplified sequence 25-37-25°C (mild heat stress)",38 mm
same,inhibition zone diameter,"[2]; red grape juice + raw potatoes juice with selenium, clarithromycin 2mg/ml, pH 4.0, thermal plates 25-41-52-41-35-25°C, 8µl on disk",37 mm
same,inhibition zone diameter,"[3]; Saccharomyces Lalvin, YPD broth pH 6.5, clarithromycin 2mg/ml, experiment with lethal heat stress 25-34-55-34-25°C",40.5 mm
same,inhibition zone,"[3]; Saccharomyces Lalvin, clarithromycin 2mg/ml, pH 4.0, 25-41-43-35-25°C",41 mm
same,inhibition zone,"[3]; Saccharomyces Lalvin, clarithromycin 2mg/ml, pH 4.0, 25-41-45-35-25°C",41 mm
same,inhibition zone,"[3]; Saccharomyces Lalvin, clarithromycin 2mg/ml, pH 4.0, 25-41-47-35-25°C",38.5 mm
same,inhibition zone,"[3]; Saccharomyces Lalvin, clarithromycin 2mg/ml, pH 4.0, 25-41-49-35-25°C",40 mm
same,inhibition zone,"[3]; Saccharomyces Lalvin, clarithromycin 2mg/ml, pH 4.0, 25-41-51-35-25°C",40 mm
same,inhibition zone,"[3]; Saccharomyces Lalvin, clarithromycin 2mg/ml, pH 4.0, 25-41-53-35-25°C",40 mm
same,inhibition zone,"[3]; Saccharomyces Lalvin, clarithromycin 2mg/ml, pH 4.0, 25-41-54-35-25°C",40 mm
same,inhibition zone,"[3]; Saccharomyces Lalvin, red grape juice + Potato Plus Juice, clarithromycin 2mg/ml, pH 4.0, 25-41-41-35-25°C (upper plate 41°C)",41 mm
same,inhibition zone diameter,"[3]; Saccharomyces Lalvin, red grape juice + raw potatoes juice with selenium, clarithromycin 2mg/ml, pH 4.0, 25-41-52-41-35-25°C, 8µl on disk",38 mm
same,inhibition zone,"[3]; Saccharomyces bayanus Lalvin QA23, red grape juice + raw potatoes juice with selenium, clarithromycin 2mg/ml, pH 4.0, 25-41-52-41-35°C, skullcap extract after 35°C plate",42 mm
same,inhibition zone,"[3]; Saccharomyces bayanus Lalvin, clarithromycin 2mg/ml, pH 6.5, after sequence 25-41-52-41-35-25°C (last thermal plate), 8µl",38.5 mm
same,inhibition zone,"[3]; Saccharomyces bayanus Lalvin, medium a: red grape juice + Potato Plus Juice, clarithromycin 2mg/ml, pH 4.0, 25-41-52-41-35-25°C, violet photoinduction",39.5 mm
same,inhibition zone,"[3]; Saccharomyces bayanus Lalvin, medium c: red grape juice + Potato Plus Juice + spelt wheat hydrolysate, clarithromycin 2mg/ml, pH 6.5, 25-41-52-41-35-25°C, violet photoinduction",36.5 mm
same,inhibition zone,[4]; after sequence 25-35-52-41°C (last thermal plate),42 mm
same,inhibition zone,[4]; after sequence 25-39-52-41°C (last thermal plate),42 mm
"CC[C@H]1OC(=O)[C@H](C)[C@@H](O[C@H]2C[C@@](C)(OC)[C@@H](O)[C@H](C)O2)[C@H](C)[C@@H](O[C@@H]2O[C@H](C)C[C@H](N(C)C)[C@H]2O)[C@](C)(O)C[C@@H](C)C(=O)[C@H](C)[C@@H](O)[C@]1(C)O [Erythromycin standard (2mg/ml), Erythromycin]",inhibition zone,"[2]; Saccharomyces bayanus Lalvin, red grape juice + alkaline hydrolyzed spelt wheat flour + parsley juice, erythromycin 1mg/ml, pH 7.0, 25-41-52-41-35-25°C, violet photoinduction, BHI agar with defibrinated horse blood",48 mm
CS(=O)(=O)c1ccc([C@@H](O)[C@@H](CF)NC(=O)C(Cl)Cl)cc1 [Florfenicol],inhibition zone,"[1]; Saccharomyces bayanus Lalvin and Saccharomyces cerevisiae combined, red grape juice medium, florfénicol 2mg/ml, pH 7.5, 20µl deposit",39 mm
"O=C1CN(/N=C/c2ccc([N+](=O)[O-])o2)C(=O)N1 [Standard nitrofurantoin in DMSO, 1mg/ml, Nitrofurantoin]",Inhibition zone diameters,"[1]; 20µl deposits, Saccharomyces cerevisiae bayanus Lalvin QA23, nitrofurantoin, pH around 7.0, 90minutes 41°C, 60minutes 52°C",32 mm
